Assay [1] concerns the target T1, HIV-1-Protease (Human immunodeficiency virus type 1 group M subtype B, UniProt P04585).
T1 construct: Gereinigte HIV-Protease wurde mit synthetischem Peptid
Put plainly: HIV-specific protease enzyme test (cleavage of synthetic peptide by purified HIV protease, RP-HPLC analysis). The format is biochemical. The settings on record: synthetic peptide substrate imitating Gag precursor cleavage site; for pIC50: read-out: HIV-1-Protease-Inhibition IC50. An excerpt:
Es wurde überraschend gefunden, daß die Verbindungen der allgemeinen Formel (I) eine außerordentlich starke Wirkung gegen Retroviren besitzen. Dies wird mit einem HIV-spezifischen Protease-Enzymtest belegt.
Die Ergebnisse der unten aufgeführten Beispiele wurden nach dem in den folgenden Literaturangaben [vgl. Hansen, J., Billich, S., Schulze, T., Sukrow, S. and Mölling, K. (1988), EMBO Journal, Vol, 7, No. 6, pp. 1785 - 1791] beschriebenen HIV-Testsystem ermittelt: Gereinigte HIV-Protease wurde mit synthetischem Peptid, das eine Schnittstelle im Gag-Precursor-Protein imitiert und eine in vivo-Spaltstelle der HIV-Protease darstellt, inkubiert. Die entstandenen Spaltprodukte des synthetischen Peptids wurden über Reverse Phase High Performance Liquid Chromatography (RP-HPLC) analysiert. Die angegebenen IC50Werte beziehen sich auf die Substanzkonzentration, die unter den oben aufgeführten Testbedingungen eine 50%ige Hemmung der Protease-Aktivität bewirkt.

Assay [2] has as its system HIV. Put plainly: HIV infection in cell culture (PBL), inhibition of virus-induced syncytia formation. It is filed as cell-based. The settings on record: Human immunodeficiency virus 1, Lymphocyte, 72 h; HIV-infected normal human blood lymphocytes (PBL's); 50% suppression of virus-induced syncytia, read microscopically day 3 to 6 after infection. The protocol: Außerdem zeigten die erfindungsgemäßen Verbindungen Wirkung in Lentivirus infizierten Zellkulturen. Dies konnte am Beispiel des HIV-Virus gezeigt werden.
HIV-Infektion in Zellkultur
Der HIV-Test wurde mit geringen Modifikationen nach der Methode von Pauwels et al. [vgl. Journal of Virological Methods 20, (1988), 309-321] durchgeführt.
Normale menschliche Blutlymphozyten (PBL's) wurden über Ficoll-Hypaque angereichert und im RPMI 1640, 20% fötales Kälberserum mit Phythaemagglutinin (90 µg/ml) und Interleukin-2 (40 U/ml) stimuliert. Zur Infektion mit dem infektiösen HIV wurden PBL's pelletiert und das Zellpellet wurde anschließend in 1 ml HIV-Virusadsorptionslösung suspendiert und 1 Stunde bei 37°C inkubiert.
Die Virusadsorptionslösung wurde zentrifugiert und das infizierte Zellpellet in Wachstumsmedium aufgenommen, so daß 1 x 10^5 Zellen pro ml eingestellt waren. Die derart infizierten Zellen wurden zu 1 x 10^4 Zellen/Napf in die Näpfe von 96er Mikrotiterplatten pipettiert.
Die erste vertikale Reihe der Mikrotiterplatte enthielt nur Wachstumsmedium und Zellen, die nicht infiziert, aber ansonsten genauso wie oben beschrieben, behandelt worden waren (Zellkontrolle). Die zweite vertikale Reihe der Mikrotiterplatte erhielt nur HIV-infizierte Zellen (Viruskontrolle) in Wachstumsmedium. Die übrigen Näpfe enthielten die erfindungsgemäßen Verbindungen in unterschiedlichen Konzentrationen, ausgehend von den Näpfen der 3. vertikalen Reihe der Mikrotiterplatte, von der die Prüfsubstanzen in 2er Schritten 2^10fach verdünnt wurden.
Die Testansätze wurden so lange bei 37°C inkubiert, bis in der unbehandelten Viruskontrolle die für das HIV typische Syncytienbildung auftrat (zwischen Tag 3 und 6 nach Infektion), die dann mikroskopisch ausgewertet wurde. In der unbehandelten Viruskontrolle resultierten unter diesen Testbedingungen etwa 20 Syncytien, währen die unbehandelte Zellkontrolle keine Syncytien aufwies. […]

Molecules are shown by their SMILES. pIC50: −log10 of the molar value.

Turning to `CCOC(=O)CCC(=O)O[C@H](CN1[C@H](C(F)(F)F)C[C@@H]2CCC[C@@H]21)[C@H](Cc1ccccc1)NC(=O)[C@H](CC(N)=O)NC(=O)c1ccc2ccccc2n1` [Beispiel 1, (2R,3S)-3-(Chinolin-2-yl-L-asparaginyl)-amino-1-[(S,S,S)-3-trifluormethyl-2-azabicylco[3.3.0]octan-2-yl}-2-(3-ethoxycarbonyl)propionyl-4-phenylbutan], the pIC50 in assay [1] is 3.49; in assay [2], 6.97.

With `CC(=O)O[C@H](CN1[C@H](C(F)(F)F)C[C@@H]2CCC[C@@H]21)[C@H](Cc1ccccc1)NC(=O)[C@H](CC(N)=O)NC(=O)c1ccc2ccccc2n1` [Beispiel 2], in assay [1], the “HIV-1-Protease-Inhibition IC95” value is reported as 3,3 x 10^-5 Mol/l. In addition, the results for the pIC50 in assay [1] and in assay [2] were 5.96 and 6.21, respectively.

For `CC(=O)O[C@H](CN1[C@H](C(F)(F)F)C[C@@H]2CCC[C@@H]21)[C@H](Cc1ccccc1)NC(=O)[C@H](CC(N)=O)NC(=O)c1cnc2cc(C)c(C)cc2n1` [Beispiel 3], in assay [1], the “HIV-1-Protease-Inhibition IC95” value is recorded as 2,5 x 10^-8 Mol/l and the pIC50 is 8.82. The compound further had a pIC50 in assay [2] of 6.92.

(Values after patent EP0720987A1, “Acylated pseudopeptides containing trifluoromethyl substituted 2-azabicyclooctane” (BAYER AG, priority 1995, dated 1996).)
